Measured values: US9662329B2, “Use of survivin antagonists in polyomavirus-related disease” (University of Pittsburgh—Of the Commonwealth System of …, priority 2012, dated 2017)
Read-outs that look alike come from different tables or passages of the source.

Legend:
[1] = test system: MS-1 (MCV-positive) and UISO (MCV-negative) cell xenografts; test: MS-1 and UISO xenograft drug treatment; type: in vivo, NSG mice; settings: end of three week treatment period; MS-1 and UISO xenografts
Protocol: MCC cells were checked for viability >90% by trypan blue staining, resuspended in PBS (2×10^7 cells in 100 μl) and inoculated subcutaneously into the right flank of mice.
All treatments were delivered for three consecutive weeks. […] YM-155 (2 mg/kg) was given intraperitoneally on five consecutive days, followed by a two-day treatment free interval.

MKL-1 cells [2] = test: Immunoblotting for cPARP, cCaspase 3 and LC3; type: cell-based, human; settings: 100 nM, 48 hours
MKL-2 xenografts = test: MKL-2 xenograft drug treatment; type: in vivo, NSG mice; settings: continuously at 4 mg/kg
Protocol: Cells of Merkel cell polyomavirus (+) carcinoma cell lines MKL-1, MS-1, WaGa, and MKL-2 were checked for viability >90% by trypan blue staining, resuspended in PBS (2×10^7 cells in 100 μl) and inoculated subcutaneously into the right flank of mice.

MKL-1 cells [3] = test: Cell death evaluation by CFDA and PI staining; type: cell-based, human; settings: 100 nM
Protocol: Upon harvesting cells are resuspended in 2 ml of PBS containing 4 μg/ml PI (propidium iodide, Sigma) and 10 μM Carboxy fluorescin diacetate (CFDA, Invitrogen) at room temperature for 10 mins. Cells were then rinsed in 1× PBS and then examined under the microscope. Quantitation was done using ImageJ software.

MKL-1 cells [4] = test: Trypan blue dye exclusion assay; settings: for viability at 0.1 µM: Homo sapiens
Protocol: (§1) Cells were equally seeded and treated with YM155 for 48 hours. To count blue stained dead cells, cells were treated with Accutase (Millipore), collected, resuspended in PBS, mixed with equal volume of Trypan blue (Lonza, 0.4%) and counted using a hemocytometer under the microscope. The counts were done in triplicate and the experiment was repeated three times.
MKL-1 cells were co-stained with CFDA (green, live) and PI (red, dead). In FIG. 4D, column graphs represent mean and range quantitations (using ImageJ) of % CFDA positive and % PI positive cells.

[5] = test system: survivin protein expression in MKL-1 cells; test: Immunoblotting for survivin; type: cell-based, human; settings: after 12 h treatment
Protocol: Cells were lysed in buffer (RIPA or 10 mM Tris-HCl pH 8.0, 0.6% SDS) containing protease inhibitor cocktail (Roche). Lysates were electrophoresed in 10% SDS-PAGE, transferred to nitrocellulose membrane (Amersham) and reacted with specific antibodies (CM2B4, (1:5000 dilution) (Shuda et al., Human Merkel cell polyomavirus infection I. MCV T antigen expression in Merkel cell carcinoma, lymphoid tissues and lymphoid tumors. Int J Cancer 125, 1243 (Sep. 15, 2009)), cleaved PARP, cleaved caspase3, survivin, XIAP, p53, Bcl-2, Bax (1:1000 dilution, Cell Signalling Technologies), E2F1, cyclin E (1:1000 dilution, Santa Cruz Biotechnology), LC3 (1:1000 dilution, Novus Biologicals) or α-tubulin (1:5000 dilution, Sigma)) overnight at 4° C., followed by anti-mouse (1:5000 dilution, Amersham) or anti-rabbit IgG-HRP conjugates (1:3000 dilution, Cell signaling) for 1 hour at room temperature. Peroxidase activity was detected using Western Lightning plus-ECL reagent (Perkin Elmer). For quantitative immunoblotting, Odyssey Infrared Imaging system (LICOR) was used with IRDye 800-conjugated secondary antibodies (1:5000 dilution, Rockland Immuno chemicals).

[6] = test system: MCV-positive MCC cell lines (MKL-1, MKL-2, MS-1 and WaGa); test: Cell-Titer Glo growth inhibition by YM155; type: cell-based, human; settings: 48 h
Description: Seven Merkel cell carcinoma cell lines: MKL-1, MKL-2, MS-1, UISO, MCC13, MCC26 and WaGa (kind gift of Jurgen Becker (Houben et al., Merkel cell polyomavirus-infected Merkel cell carcinoma cells require expression of viral T antigens. J Virol 84, 7064 (July, 2010); Ronan et al., Merkel cell carcinoma: in vitro and in vivo characteristics of a new cell line. J Am Acad Dermatol 29, 715 (November, 1993); Rosen et al., Establishment and characterization of a neuroendocrine skin carcinoma cell line. Lab Invest 56, 302 (March, 1987)); NCI-H69 small cell lung cancer cell line (ATCC); 293 human embryonic kidney cells (ATCC); U2OS osteosarcoma cell line (kind gift of Ole Gjoerup); BJhTERT immortalized foreskin fibroblast cell line (kind gift of Ole Gjoerup); and BJ primary foreskin fibroblasts (ATCC) were used to screen and evaluate the small molecules examined in this study (Houben et al., J Virol 84, 7064 (July, 2010); Ronan et al., J Am Acad Dermatol 29, 715 (November, 1993); Rosen et al., Lab Invest 56, 302 (March, 1987)). […]
Serial drug dilutions from 10^−4 M to 10^−9 M were used on MCC and non-MCC cell lines. […] Cell viability was then measured using Cell Titer Glo (Promega) kit following manufacturer's instructions as described previously. […] EC50 doses for the drugs were calculated using a four parameter logistic equation (GraphPad Prism).

BJ cells = test: Trypan blue dye exclusion assay; type: cell-based, human; settings: 48 h
Protocol: as §1

UISO cells = test: Trypan blue dye exclusion assay; type: cell-based, human; settings: 48 h
Protocol: as §1

MKL-1 cells [7] = test: Cell cycle analysis (PI and BrdU staining); type: cell-based, human; settings: 12 h, YM155 100 nM, camptothecin 1 μM
Protocol: MKL-1 cells were treated with Accutase (Millipore) to break clumps and then resuspended in fresh medium containing drug and treated for 12 hours. Three hours before harvest 10 μM Bromodeoxyuridine (BrdU) was added. Cells were then harvested and fixed in chilled 70% ethanol and left overnight. The next day cells were washed, resuspended in 200 μl of 2M HCl/Triton X (1%) and incubated for 30 mins at room temperature. Cells were then centrifuged at 2000 rpm for 10 mins and neutralized in 200 μl of 0.1M sodium tetraborate, pH 8.5 solution. Cells were then washed, suspended in 20 μl of PBS containing 0.5% tween20, 1% donkey serum and 2ul of anti-BrdU antibody (1:10 diution, BD Biosciences) and incubated overnight at 4° C. Cells were then washed and incubated with secondary antibody-anti mouse Alexa488 (1:1000) for 1 hour at room temperature. Cells were finally washed, suspended in PBS containing 100 μg/ml of RNase A, 50 μg/ml of PI (propidium iodide) and 0.05% Triton X and incubated for 30 mins at 37° C. in the dark. The cells were then subjected to FACS using the accuri C6 flow cytometer (UPCI shared resources).

COCCn1c2c([n+](Cc3cnccn3)c1C)C(=O)c1ccccc1C2=O.[Br-] [YM155, 1-(2-methoxyethyl)-2-methyl-4,9-dioxo-3-(pyrazin-2-ylmethyl)-4,9-dihydro-1H-naphtho[2,3-d]imidazol-3-ium bromide]
final tumor volumes, % (median) of saline-treated control mice [1]: 43-55% | LC3-II accumulation (marker for cell autophagy) (MKL-1 cells [2]): did not initiate LC3-II accumulation | apoptosis measured by caspase 3 and PARP cleavage (MKL-1 cells [2]): No evidence of apoptosis | animals surviving, of 10 (MKL-2 xenografts): three survived more than four months | time to initiation of programmed cell death (PI positive, CFDA negative) (MKL-1 cells [3]): 12 to 24 h | cell killing, trypan blue vital dye exclusion (MKL-1 cells [4]; 48 h, MKL-1): dose-dependent cell killing | viability at 0.1 µM (MKL-1 cells [4]; MKL-1, read-out: cells remaining viable at 48 hours, 100 nM for 3 hours, followed by wash out): 51% | viability at 0.1 µM (MKL-1 cells [4]; MKL-1, read-out: cells remaining viable at 48 hours, 100 nM for 6 hours, followed by wash out): 3% | viability at 0.1 µM (MKL-1 cells [4]; MKL-1, read-out: cells remaining viable at 48 hours, 100 nM for 12 hours, followed by wash out): 1.8% | survivin protein expression [5]: dose-dependent decrease | sensitivity to YM155, dose-dependent growth curves ([6]; MKL-1, MKL-2, MS-1 and WaGa): sensitive | EC50 ([6]; Homo sapiens, MKL-1, range over MCV-positive MCC cell lines, Cell-Titer Glo, read-out: EC50, inhibiting MCV-positive MCC cell growth in vitro): 1.34 to 12.2 nM | cell killing, trypan blue vital dye exclusion (BJ cells): resistant | cell killing, trypan blue vital dye exclusion (UISO cells): relatively less sensitive | BrdU incorporation (MKL-1 cells [7]): ablates BrdU incorporation in all phases of the cell cycle
